Test results reported in US20100179142A1 (priority 2003, published 2010).

Legend:
[1] = tested on: MMTV-neu tumours; type: in vivo, mice
Experimental: Following pregnancy, which induces activation of the promoter, MMTV-neu mice spontaneously develop multiple tumours within each mammary gland. […] Control animals were dosed with vehicle (1% polysorbate 80). Due to variability in the growth of spontaneous tumours, dosing commenced at different times relative to the assessment of tumour volume, which was determined twice weekly on all animals using calipers. To simplify the analysis, data within each group were collated in 3 day intervals (e.g. tumour volumes from mice receiving either 2, 3 or 4 doses of compound were pooled and the mean volume plotted against “day 3”). Data is plotted for measurements grouped over 3 day periods ie 2-4, 5-7, 8-10 etc. Statistical analysis was performed on measurements between 20 and 22 days of dosing.

[2] = tested on: A431 vulval carcinoma xenografts; assay: Human A431 vulval carcinoma tumour xenografts in nude mice; settings: p.o. daily, AZD2171 3 mg/kg/day, ZD1839 50 mg/kg/day or both; for Number of tumours regressing after 24 days of treatment (treatment from day 28 to day 52): regressing/total
Experimental: 5×10^6 A431 tumour cells in 0.1 ml of serum free Dulbecco's Modified Eagle's Medium (DMEM) were injected subcutaneously (s.c.) into the flank of each athymic (nu/nu genotype) mouse. Eleven days after inoculation tumours were excised and dissected to generate cubic tumour fragments of 0.5-1 mm^3, which were implanted into further nude mice for a therapy experiment. Tumour volumes were assessed by bilateral Vernier caliper measurement and, taking length to be the longest diameter across the tumour and width the corresponding perpendicular, calculated using the formula (length×width)×the square root of (length×width)×(π/6). […] Inhibition of tumour growth from the start of treatment was assessed on day 45 (the point at which control animals were removed from the experiment because of tumour burden) by comparison of the differences in tumor volume between control and treated groups. In addition, the number of tumour regressions following 24 days of treatment was ascertained (tumour regression being evident if the tumour volume at day 52 was smaller than the pre-treatment value on day 28).

SMILES | inhibition of growth of established MMTV-neu tumours ([1]; AZD2171 alone 1 or 3 mg/kg/day, orally once-daily, 20-22 days of dosing, P<0.05) | Number of tumours regressing after 24 days of treatment (treatment from day 28 to day 52) [2] | Mean % Inhibition of tumour growth following 17 days of treatment (treatment from day 28 to day 45) ([2]; versus control at day 45) | anti-tumour effect in MMTV-neu mice ([1]; mouse, in vivo)
COc1cc2c(Oc3ccc4[nH]c(C)cc4c3F)ncnc2cc1OCCCN1CCCC1 [AZD2171, 4-(4-fluoro-2-methylindol-5-yloxy)-6-methoxy-7-(3-(pyrrolidin-1-yl)propoxy)quinazoline] | inhibited the growth of established (≧0.4 cm^3) MMTV-neu tumours significantly | 2/10 | 95% (P < 0.001) | 
COc1cc2ncnc(Nc3ccc(F)c(Cl)c3)c2cc1OCCCN1CCOCC1 [ZD1839, N-(3-chloro-4-fluorophenyl)-7-methoxy-6-(3-morpholinopropoxy)quinazolin-4-amine, reference compound] |  | 2/10 |  | significant anti-tumour effect
